Results on 3 compounds are retold here after paper PMC6713424 (Journal of Medicinal Chemistry, 2019).

The subject of assay [1] is HSC-2 human oral cancer cells. The experiment in a line: MTT cell proliferation assay in HSC-2 cells. Type of assay: cell-based. The settings on record: HSC-2, 1-100 μM, 24, 48 and 72 h.
The test system of assay [2] is NNMT activity (MNA production) in HSC-2 cells. The experiment in a line: Cellular MNA levels in HSC-2 cells. Type of assay: cell-based, human. As to conditions: HSC-2, 100 μM, 72 h; same effect in DMSO control.

“Also recorded” adds a separate entry of the source.

`Nc1ncnc2c1ncn2[C@@H]1O[C@H](CN(CC[C@H](N)C(=O)O)Cc2ccc3ccccc3c2)[C@@H](O)[C@H]1O` [Compound 78, (S)-2-Amino-4-((((2R,3S,4R,5R)-5-(6-amino-9H-purin-9-yl)-3,4-dihydroxytetrahydrofuran-2-yl)methyl)(naphthalen-2-ylmethyl)amino)butanoic Acid]: the “effect on cell proliferation (in words)” value in assay [1] is on record as “notable decrease in cell proliferation; also recorded: significant inhibitory effect on cell proliferation”. In addition, the “cellular MNA production (in words)” value in assay [2] is “increase in cellular MNA production”.

On to `NC(=O)c1cccc(CN(CC[C@H](N)C(=O)O)C[C@H]2O[C@@H](n3cnc4c(N)ncnc43)[C@H](O)[C@@H]2O)c1` [Compound 1], for which the “effect on cell proliferation (in words)” value in assay [1] was “not significantly inhibited”.

Take `Nc1ncnc2c1ncn2[C@@H]1O[C@H](CN(CCC[C@H](N)C(=O)O)Cc2ccc3ccccc3c2)[C@@H](O)[C@H]1O` [Compound 81, (S)-2-Amino-5-((((2R,3S,4R,5R)-5-(6-amino-9H-purin-9-yl)-3,4-dihydroxytetrahydrofuran-2-yl)methyl)(naphthalen-2-ylmethyl)amino)pentanoic Acid]: the “effect on cell proliferation (in words)” value in assay [1] is recorded as “not significantly inhibited”.
